Measurements reported in ChEMBL document CHEMBL5357019, “Targeted Combination Therapies: A New Frontier in the Treatment of TP53 and KRAS Mutation-Associated Cancers” (2024).

Experiments:
Type in all cases: functional
NCI-H23 [1] = test: Antitumor activity against human NCI-H23 cells assessed as inhibition of cell growth at 120 nM incubated for 72 hrs by Celltiter Glo assay relative to control
NCI-H23 [2] = test: Synergistic antitumor activity against human NCI-H23 cells assessed as inhibition of cell growth at 120 nM incubated for 72 hrs in presence of sotorasib by Celltiter Glo assay relative to control
MIA PaCa-2 [3] = test: Antitumor activity against human MIA PaCa-2 cells assessed as inhibition of cell growth at 1000 nM incubated for 72 hrs by Celltiter Glo assay
MIA PaCa-2 [4] = test: Synergistic antitumor activity against human MIA PaCa-2 cells assessed as inhibition of cell growth at 1000 nM incubated for 72 hrs in the presence of sotorasib by Celltiter Glo assay
NCI-H358 [5] = test: Antitumor activity against human NCI-H358 cells assessed as inhibition of cell growth at 300 nM incubated for 72 hrs by Celltiter Glo assay relative to control
NCI-H358 [6] = test: Synergistic antitumor activity against human NCI-H358 cells assessed as inhibition of cell growth at 300 nM incubated for 72 hrs in presence of sotorasib by Celltiter Glo assay relative to control
SW837 [7] = test: Antitumor activity against human SW837 cells assessed as inhibition of cell growth at 1000 nM incubated for 72 hrs by Celltiter Glo assay relative to control
SW837 [8] = test: Synergistic antitumor activity against human SW837 cells assessed as inhibition of cell growth at 1000 nM incubated for 72 hrs in presence of sotorasib by Celltiter Glo assay relative to control
SW837 [9] = test: Antitumor activity against human SW837 cells xenografted in mouse assessed as tumor growth inhibition at 60 mg/kg, po administered once daily for 18 days relative to control; settings: SW837, 432 h, time 18 day, read-out: TGI
SW837 [10] = test: Synergistic antitumor activity against human SW837 cells assessed as tumor growth inhibition at 60 mg/kg, po once daily for 18 days co-administered with sotorasib relative to control; settings: SW837, 432 h, time 18 day, read-out: TGI
SW837 [11] = test: Synergistic antitumor activity against human SW837 cells assessed as tumor regression at 60 mg/kg, po once daily for 18 days co-administered with sotorasib relative to control; settings: time 18 day
NCI-H23 [12] = test: Antitumor activity against human NCI-H23 cells assessed as inhibition of cell growth at 40 nM incubated for 72 hrs by Celltiter Glo assay relative to control
MIA PaCa-2 [13] = test: Antitumor activity against human MIA PaCa-2 cells assessed as inhibition of cell growth at 350 nM incubated for 72 hrs by Celltiter Glo assay
NCI-H358 [14] = test: Antitumor activity against human NCI-H358 cells assessed as inhibition of cell growth at 10 nM incubated for 72 hrs by Celltiter Glo assay relative to control
SW837 [15] = test: Antitumor activity against human SW837 cells assessed as inhibition of cell growth at 12 nM incubated for 72 hrs by Celltiter Glo assay relative to control
SW837 [16] = test: Antitumor activity against human SW837 cells xenografted in mouse assessed as tumor growth inhibition at 30 mg/kg, po administered once daily for 18 days relative to control; settings: SW837, 432 h, time 18 day, read-out: TGI

Structure (SMILES)	inhibition at 0.12 µM (NCI-H23 [1])	inhibition at 0.12 µM (NCI-H23 [2])	inhibition at 1 µM (MIA PaCa-2 [3])	inhibition at 1 µM (MIA PaCa-2 [4])	inhibition at 0.3 µM (NCI-H358 [5])	inhibition at 0.3 µM (NCI-H358 [6])	inhibition at 1 µM (SW837 [7])	inhibition at 1 µM (SW837 [8])	inhibition in vivo at 60 mg/kg (SW837 [9])	inhibition in vivo at 60 mg/kg (SW837 [10])	Activity (SW837 [11])	inhibition at 0.04 µM (NCI-H23 [12])	inhibition at 0.35 µM (MIA PaCa-2 [13])	inhibition at 0.01 µM (NCI-H358 [14])	inhibition at 0.012 µM (SW837 [15])	inhibition in vivo at 30 mg/kg (SW837 [16])
C=CCn1c(=O)c2cnc(Nc3ccc(N4CCN(C)CC4)cc3)nc2n1-c1ccc2c(n1)[C@@](O)(CC)CC2 [AZENOSERTIB]	16.5%	53%	47%	76%	31.5%	55.6%	28.8%	45.4%	72%	109%	23%	–	–	–	–	–
C=CC(=O)N1CCN(c2nc(=O)n(-c3c(C)ccnc3C(C)C)c3nc(-c4c(O)cccc4F)c(F)cc23)[C@@H](C)C1 [SOTORASIB]	–	–	–	–	–	–	–	–	–	–	–	27.8%	39%	24%	20.7%	80%
